Data: patent publication US20250354192A1, “METHODS FOR QUANTIFYING LIVE BACTERIA” (priority 2022, published 2025)

Columns and labels:
Format in all cases: cell-based
[1] = tested on: Salmonella Typhimurium and Klebsiella pneumoniae; test: Two-step CLICK labeling with or without EDA, PIPER non-capture assay; conditions: 1 mM EDA, last 30 min of incubation; 25 μM CF488 picolyl azide
Procedure: FIG. 7 depicts both components of the two-step CLICK reaction are required for cell labeling. Salmonella Typhimurium (top panel) and Klebsiella pneumoniae (bottom panel) were grown overnight at 37° C. The next day, cells were diluted into fresh media and grown until they reached log-phase. The last 30 min of incubation were carried out in the presence or absence of 1 mM of EDA (D-propargylglycine, AK Scientific, Union City, CA). Cells were harvested by centrifugation (10 min 10,000 g), and supernatant was discarded. Bacteria were then washed, fixed by incubation with 4% paraformaldehyde, pelleted by centrifugation (10 min 10,000 g), and supernatant was discarded. […] An automated bacterial image recognition algorithm determined labeled cell counts (graphs).

[2] = tested on: innate live bacterial populations in whole carcass rinsates; test: 3-step metabolic labeling of whole carcass rinsates with or without EDA, PIPER; conditions: two whole carcass rinsate samples
Procedure: Experimental Detail: Whole carcass rinsate samples were prepared as per FSIS USDA guidance using two separate whole chickens from the grocery store obtained prior to “use by” date. Sodium polyanethol sulfonate was added to 0.05% to limit blood clotting. Prior to 3-step metabolic labeling, an aliquot from each rinsate was removed for serial dilution and plating on APC petrifilm (3M, Saint Paul, MN) and incubated as per manufacturer instructions to evaluate the number of total viable bacteria by the “gold standard” method. 1 mL rinsate aliquots were used for incubation with, or without EDA, as a control for non-specific staining with the fluorophore. The 1st step of labeling was carried out by adding 5 μg/mL chloramphenicol and 1 mM EDA, where indicated, followed by 90 min incubation at 37° C. […]
FIG. 25 depicts how 3-step metabolic labeling detects innate live bacterial populations in whole carcass rinsates. FIG. 25A depicts PIPER images of innate populations of live bacteria detected by 3-step metabolic labeling in two separate whole carcass rinsate samples. […] To convert the PIPER counts into the number of live bacteria per swab, the values were corrected for the volume of the viewing window relative to the total sample volume loaded into the cartridge lane, and the fraction of the total sample volume analyzed.

[3] = tested on: innate live bacterial populations in poultry facility swabs; test: 3-step metabolic labeling of poultry facility swabs with or without EDA, PIPER
Procedure: Experimental Detail: Swab samples were collected using sponge sticks (3M, Saint Paul, MN) soaked in Letheen broth (samples G, Q) or Neutralizing buffer (sample H). Samples were stored on ice and processed within 24 hours after collection. Eluents from the sponges were aseptically extracted and the rest was frozen at −80° C. until the time of analysis. Prior to 3-step metabolic labeling, an aliquot from each eluent was removed for serial dilution and plating on APC petrifilm (3M, Saint Paul, MN) and incubated as per manufacturer instructions to evaluate the number of total viable bacteria by the “gold standard” method. Each eluent sample was divided into two aliquots for incubation with EDA or without EDA, as a control for non-specific staining with the fluorophore. The 1st step of labeling was carried out by adding 5 μg/mL chloramphenicol and 1 mM EDA, where indicated, followed by 90 min incubation at 37° C. […]
FIG. 24 depicts how 3-step metabolic labeling detects innate live bacterial populations in poultry facility swabs. […] To convert the PIPER counts into the number of live bacteria per swab, the values were corrected for the volume of the viewing window relative to the total sample volume loaded into the cartridge lane, and the fraction of the total eluent volume analyzed.

## C#CC[C@@H](N)C(=O)O [EDA, D-propargylglycine]
[1]
  signal of click labeling in the presence or absence of EDA: No signal is observed when the click reagents are added in the absence of EDA
[2]
  signal on omitting EDA from the 1st step of labeling: dramatic reduction of the signal
[3]; 1 mM EDA, 90 min at 37° C.
  increase in PIPER cell counts over (-EDA) control: ~1.5 log
[3]; swab samples H, G and Q
  signal on omitting EDA from the 1st step of labeling: dramatic reduction of the signal
